Measurements reported in ChEMBL document CHEMBL5465560, “Selectivity Literature for EUbOPEN Chemogenomic Library” (2024).
Values belong to the molecule of their own block, whether it stands above or below them.

Tests used:
[1] = target: Calcium/calmodulin-dependent protein kinase type II subunit alpha (Homo sapiens, UniProt Q9UQM7); test: Selectivity interaction (Kinase panel (literature)) EUB0001199aCl CAMK2A; conditions: at 1 µM
[2] = target: RAC-gamma serine/threonine-protein kinase (Homo sapiens, UniProt Q9Y243); test: Selectivity interaction (KinomeScan (DiscoverX)) EUB0000607a AKT3; conditions: at 10 µM
[3] = target: Rho-associated protein kinase 1 (Homo sapiens) (UniProt Q13464); test: Selectivity interaction (Upstate Kinase Profiler service (Millipore)) EUB0000056c ROCK1; conditions: at 1 µM
[4] = target: T1, Mitogen-activated protein kinase kinase kinase 2 (Homo sapiens) (UniProt Q9Y2U5); test: Selectivity interaction (ActivX KiNativ screen (kinase selectivity in THP-1 cell lysates)) EUB0000639a MAP3K2; assay type: subcellular; conditions: lysate, at 5 µM
T1 sequence (whole entry): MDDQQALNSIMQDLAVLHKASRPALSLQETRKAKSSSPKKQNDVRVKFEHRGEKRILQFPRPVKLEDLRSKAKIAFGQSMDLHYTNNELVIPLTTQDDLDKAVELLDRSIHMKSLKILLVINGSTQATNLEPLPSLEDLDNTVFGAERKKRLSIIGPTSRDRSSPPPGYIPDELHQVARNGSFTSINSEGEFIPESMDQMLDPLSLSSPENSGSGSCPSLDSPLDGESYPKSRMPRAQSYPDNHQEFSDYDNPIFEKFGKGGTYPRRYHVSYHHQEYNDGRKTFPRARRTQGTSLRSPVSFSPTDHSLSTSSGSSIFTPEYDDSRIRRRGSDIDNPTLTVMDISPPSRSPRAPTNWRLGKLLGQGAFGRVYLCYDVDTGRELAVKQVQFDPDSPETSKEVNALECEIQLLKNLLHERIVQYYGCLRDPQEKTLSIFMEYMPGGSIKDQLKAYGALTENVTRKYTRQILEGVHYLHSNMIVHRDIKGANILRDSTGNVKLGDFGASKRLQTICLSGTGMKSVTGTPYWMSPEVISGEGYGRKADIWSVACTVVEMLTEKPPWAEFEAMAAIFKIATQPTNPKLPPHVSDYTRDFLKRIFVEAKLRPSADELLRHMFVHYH

[5] = tested on: RAF proto-oncogene serine/threonine-protein kinase (Homo sapiens), P04049 [Y340D,Y341D]; test: Selectivity interaction (ProQinase) EUB0000171b RAF1
[6] = target: Death-associated protein kinase 3 (Homo sapiens) (UniProt O43293); test: Selectivity interaction (KinomeScan (DiscoverX)) EUB0000655a DAPK3; conditions: at 10 µM
[7] = target: T2, Cyclin-dependent kinase-like 5 (Homo sapiens) (UniProt O76039); conditions: at 10 µM
T2 sequence (whole entry): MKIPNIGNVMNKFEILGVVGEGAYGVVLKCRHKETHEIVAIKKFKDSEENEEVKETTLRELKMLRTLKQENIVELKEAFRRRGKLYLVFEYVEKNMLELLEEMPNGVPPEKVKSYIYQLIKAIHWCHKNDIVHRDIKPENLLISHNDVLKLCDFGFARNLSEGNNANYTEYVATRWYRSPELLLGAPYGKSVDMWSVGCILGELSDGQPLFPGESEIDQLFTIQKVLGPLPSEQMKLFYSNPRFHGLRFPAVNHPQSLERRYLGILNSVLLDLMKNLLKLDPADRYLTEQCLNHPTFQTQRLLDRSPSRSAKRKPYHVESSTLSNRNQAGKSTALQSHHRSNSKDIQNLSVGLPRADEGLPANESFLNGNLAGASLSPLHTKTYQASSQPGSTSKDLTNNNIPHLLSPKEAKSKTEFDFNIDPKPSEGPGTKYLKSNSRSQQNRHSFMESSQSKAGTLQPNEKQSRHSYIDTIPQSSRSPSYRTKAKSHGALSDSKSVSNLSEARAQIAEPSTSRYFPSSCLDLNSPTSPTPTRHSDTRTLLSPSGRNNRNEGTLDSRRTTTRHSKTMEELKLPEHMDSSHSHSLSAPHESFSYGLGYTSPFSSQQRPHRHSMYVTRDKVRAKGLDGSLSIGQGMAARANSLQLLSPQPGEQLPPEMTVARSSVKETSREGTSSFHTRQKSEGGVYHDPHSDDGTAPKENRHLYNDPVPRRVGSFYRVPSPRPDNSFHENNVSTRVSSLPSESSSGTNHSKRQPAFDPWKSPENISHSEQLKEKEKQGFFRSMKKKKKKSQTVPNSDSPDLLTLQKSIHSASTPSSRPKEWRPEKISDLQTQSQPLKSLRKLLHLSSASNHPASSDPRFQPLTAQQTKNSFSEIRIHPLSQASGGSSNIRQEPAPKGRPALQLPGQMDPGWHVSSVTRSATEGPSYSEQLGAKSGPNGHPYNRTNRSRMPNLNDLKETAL

[8] = target: Mitogen-activated protein kinase 14 (Homo sapiens, UniProt Q16539); conditions: at 10 µM
[9] = target: Insulin-like growth factor 1 receptor (Homo sapiens, UniProt P08069); test: Selectivity interaction (KinomeScan (DiscoverX)) EUB0001619a IGF1R; conditions: at 1 µM
[10] = target: Non-receptor tyrosine-protein kinase TYK2 (Homo sapiens, UniProt P29597); test: Selectivity interaction (KinomeScan (DiscoverX)) EUB0001619a TYK2; conditions: at 1 µM
Non-receptor tyrosine-protein kinase TYK2, sequence (P29597 whole entry): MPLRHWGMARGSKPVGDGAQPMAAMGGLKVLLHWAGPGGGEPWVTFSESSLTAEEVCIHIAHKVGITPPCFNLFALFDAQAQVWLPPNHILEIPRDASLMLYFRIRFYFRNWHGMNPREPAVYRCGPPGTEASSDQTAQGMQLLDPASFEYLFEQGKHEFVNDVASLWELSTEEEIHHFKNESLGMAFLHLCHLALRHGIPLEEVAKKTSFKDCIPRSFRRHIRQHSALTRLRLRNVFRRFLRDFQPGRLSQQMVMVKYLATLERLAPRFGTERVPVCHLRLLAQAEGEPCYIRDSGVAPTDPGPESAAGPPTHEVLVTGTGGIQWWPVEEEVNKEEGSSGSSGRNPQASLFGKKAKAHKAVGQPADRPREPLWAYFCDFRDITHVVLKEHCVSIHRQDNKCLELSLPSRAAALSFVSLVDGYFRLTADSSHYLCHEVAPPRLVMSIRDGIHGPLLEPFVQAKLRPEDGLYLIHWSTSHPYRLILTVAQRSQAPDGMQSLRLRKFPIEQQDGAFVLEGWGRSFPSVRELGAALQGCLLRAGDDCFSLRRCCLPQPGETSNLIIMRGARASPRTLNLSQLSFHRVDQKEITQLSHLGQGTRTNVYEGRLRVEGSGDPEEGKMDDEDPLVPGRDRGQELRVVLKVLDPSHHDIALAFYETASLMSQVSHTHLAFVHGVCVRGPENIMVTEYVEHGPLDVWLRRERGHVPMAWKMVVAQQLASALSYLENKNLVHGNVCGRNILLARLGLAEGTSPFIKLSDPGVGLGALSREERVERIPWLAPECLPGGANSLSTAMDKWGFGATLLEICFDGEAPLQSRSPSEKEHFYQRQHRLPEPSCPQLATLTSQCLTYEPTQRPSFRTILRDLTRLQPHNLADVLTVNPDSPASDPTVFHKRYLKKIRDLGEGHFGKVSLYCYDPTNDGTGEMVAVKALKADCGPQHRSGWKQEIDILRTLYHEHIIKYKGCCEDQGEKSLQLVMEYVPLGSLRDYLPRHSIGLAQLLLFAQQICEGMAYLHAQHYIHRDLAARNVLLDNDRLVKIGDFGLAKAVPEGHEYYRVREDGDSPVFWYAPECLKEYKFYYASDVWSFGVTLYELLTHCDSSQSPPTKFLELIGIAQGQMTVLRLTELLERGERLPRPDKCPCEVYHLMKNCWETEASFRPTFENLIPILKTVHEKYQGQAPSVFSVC

RAF proto-oncogene serine/threonine-protein kinase (Homo sapiens), P04049 [Y340D,Y341D], sequence (P04049 whole entry Y340D/Y341D): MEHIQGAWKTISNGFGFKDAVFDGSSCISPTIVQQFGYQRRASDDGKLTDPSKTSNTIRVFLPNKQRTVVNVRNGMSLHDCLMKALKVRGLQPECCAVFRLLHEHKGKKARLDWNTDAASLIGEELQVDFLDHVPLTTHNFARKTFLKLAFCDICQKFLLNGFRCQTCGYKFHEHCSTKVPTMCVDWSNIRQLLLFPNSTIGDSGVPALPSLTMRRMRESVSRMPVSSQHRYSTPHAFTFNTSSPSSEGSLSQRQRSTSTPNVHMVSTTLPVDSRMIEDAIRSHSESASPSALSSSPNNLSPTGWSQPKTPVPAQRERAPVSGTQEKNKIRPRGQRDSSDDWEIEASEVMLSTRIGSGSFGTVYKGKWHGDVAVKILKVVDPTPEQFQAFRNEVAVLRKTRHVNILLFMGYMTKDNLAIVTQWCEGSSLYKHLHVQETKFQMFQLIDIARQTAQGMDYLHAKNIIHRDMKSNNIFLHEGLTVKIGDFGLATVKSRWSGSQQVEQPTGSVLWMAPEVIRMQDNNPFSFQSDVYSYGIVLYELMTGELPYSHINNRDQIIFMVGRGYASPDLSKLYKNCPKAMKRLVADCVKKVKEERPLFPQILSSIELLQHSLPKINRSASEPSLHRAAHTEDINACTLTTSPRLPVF
Mitogen-activated protein kinase 14, sequence (Q16539 whole entry): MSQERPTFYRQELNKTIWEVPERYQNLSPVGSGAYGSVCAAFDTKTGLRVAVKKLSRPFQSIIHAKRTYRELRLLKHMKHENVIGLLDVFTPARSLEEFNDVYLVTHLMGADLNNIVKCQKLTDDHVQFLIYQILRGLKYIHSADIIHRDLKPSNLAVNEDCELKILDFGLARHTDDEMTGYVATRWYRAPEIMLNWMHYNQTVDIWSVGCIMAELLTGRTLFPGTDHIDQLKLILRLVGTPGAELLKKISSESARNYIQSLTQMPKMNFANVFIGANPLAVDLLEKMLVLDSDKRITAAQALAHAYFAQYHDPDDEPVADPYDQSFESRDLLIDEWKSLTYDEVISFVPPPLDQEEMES
RAC-gamma serine/threonine-protein kinase, sequence (Q9Y243 whole entry): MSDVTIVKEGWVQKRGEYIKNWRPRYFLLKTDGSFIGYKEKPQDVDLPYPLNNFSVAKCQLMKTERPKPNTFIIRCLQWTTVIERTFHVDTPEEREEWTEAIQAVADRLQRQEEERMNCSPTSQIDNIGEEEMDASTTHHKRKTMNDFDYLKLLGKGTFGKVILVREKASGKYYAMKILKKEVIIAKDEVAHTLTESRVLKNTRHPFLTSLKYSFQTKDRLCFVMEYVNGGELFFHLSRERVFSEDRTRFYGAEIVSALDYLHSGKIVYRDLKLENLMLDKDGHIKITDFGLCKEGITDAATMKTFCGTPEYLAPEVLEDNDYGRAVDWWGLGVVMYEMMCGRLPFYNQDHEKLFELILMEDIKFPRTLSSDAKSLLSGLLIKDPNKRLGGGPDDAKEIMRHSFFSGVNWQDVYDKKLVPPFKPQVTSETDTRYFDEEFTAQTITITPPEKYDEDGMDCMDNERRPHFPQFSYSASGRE
Death-associated protein kinase 3 (Homo sapiens), sequence (O43293 whole entry, looked up): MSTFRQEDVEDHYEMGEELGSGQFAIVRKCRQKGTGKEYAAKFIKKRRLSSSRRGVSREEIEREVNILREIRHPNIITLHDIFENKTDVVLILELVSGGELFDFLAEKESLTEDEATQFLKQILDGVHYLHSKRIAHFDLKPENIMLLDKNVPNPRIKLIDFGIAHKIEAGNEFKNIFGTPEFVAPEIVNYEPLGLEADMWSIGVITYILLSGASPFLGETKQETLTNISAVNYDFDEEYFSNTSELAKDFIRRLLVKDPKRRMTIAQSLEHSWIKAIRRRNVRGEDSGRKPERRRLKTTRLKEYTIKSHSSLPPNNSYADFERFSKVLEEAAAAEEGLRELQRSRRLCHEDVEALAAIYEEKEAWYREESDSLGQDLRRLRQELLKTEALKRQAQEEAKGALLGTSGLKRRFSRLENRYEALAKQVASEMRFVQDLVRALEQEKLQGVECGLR
Insulin-like growth factor 1 receptor, sequence (P08069 31-736 limits assumed): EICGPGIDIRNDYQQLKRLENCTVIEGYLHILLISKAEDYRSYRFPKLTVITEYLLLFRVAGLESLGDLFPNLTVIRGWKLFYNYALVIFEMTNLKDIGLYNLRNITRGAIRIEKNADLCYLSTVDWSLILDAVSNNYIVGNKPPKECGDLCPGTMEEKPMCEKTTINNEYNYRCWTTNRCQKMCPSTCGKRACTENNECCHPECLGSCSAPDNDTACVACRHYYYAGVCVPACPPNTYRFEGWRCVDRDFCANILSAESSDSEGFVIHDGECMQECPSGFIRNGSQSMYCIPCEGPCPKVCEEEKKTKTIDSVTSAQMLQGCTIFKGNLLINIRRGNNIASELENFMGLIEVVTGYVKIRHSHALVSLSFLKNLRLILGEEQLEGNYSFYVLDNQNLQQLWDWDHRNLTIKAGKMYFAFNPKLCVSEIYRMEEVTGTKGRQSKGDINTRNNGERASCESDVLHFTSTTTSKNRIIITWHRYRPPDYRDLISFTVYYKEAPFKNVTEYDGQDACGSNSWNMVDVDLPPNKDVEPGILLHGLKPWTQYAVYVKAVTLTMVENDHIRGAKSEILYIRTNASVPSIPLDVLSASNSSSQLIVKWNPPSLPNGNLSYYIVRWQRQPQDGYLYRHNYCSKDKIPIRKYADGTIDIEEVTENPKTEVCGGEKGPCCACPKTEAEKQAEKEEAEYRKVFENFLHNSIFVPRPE
Insulin-like growth factor 1 receptor, sequence (P08069 741-1367 limits assumed): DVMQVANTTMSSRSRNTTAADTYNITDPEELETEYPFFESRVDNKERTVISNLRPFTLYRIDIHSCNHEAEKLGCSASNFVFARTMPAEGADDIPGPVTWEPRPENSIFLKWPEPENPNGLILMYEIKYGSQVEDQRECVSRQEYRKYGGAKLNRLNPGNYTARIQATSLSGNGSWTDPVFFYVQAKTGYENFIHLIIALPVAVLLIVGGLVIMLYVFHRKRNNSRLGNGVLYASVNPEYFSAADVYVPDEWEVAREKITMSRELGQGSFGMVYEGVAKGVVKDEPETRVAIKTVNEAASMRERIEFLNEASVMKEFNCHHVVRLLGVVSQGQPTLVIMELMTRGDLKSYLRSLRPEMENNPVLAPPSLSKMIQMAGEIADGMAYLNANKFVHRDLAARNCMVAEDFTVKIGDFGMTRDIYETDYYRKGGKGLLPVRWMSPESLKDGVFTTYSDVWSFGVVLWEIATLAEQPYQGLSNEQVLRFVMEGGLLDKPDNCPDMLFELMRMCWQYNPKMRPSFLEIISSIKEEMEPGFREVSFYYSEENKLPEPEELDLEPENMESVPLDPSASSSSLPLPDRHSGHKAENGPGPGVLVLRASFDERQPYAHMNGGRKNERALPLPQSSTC
Calcium/calmodulin-dependent protein kinase type II subunit alpha, sequence (Q9UQM7 whole entry): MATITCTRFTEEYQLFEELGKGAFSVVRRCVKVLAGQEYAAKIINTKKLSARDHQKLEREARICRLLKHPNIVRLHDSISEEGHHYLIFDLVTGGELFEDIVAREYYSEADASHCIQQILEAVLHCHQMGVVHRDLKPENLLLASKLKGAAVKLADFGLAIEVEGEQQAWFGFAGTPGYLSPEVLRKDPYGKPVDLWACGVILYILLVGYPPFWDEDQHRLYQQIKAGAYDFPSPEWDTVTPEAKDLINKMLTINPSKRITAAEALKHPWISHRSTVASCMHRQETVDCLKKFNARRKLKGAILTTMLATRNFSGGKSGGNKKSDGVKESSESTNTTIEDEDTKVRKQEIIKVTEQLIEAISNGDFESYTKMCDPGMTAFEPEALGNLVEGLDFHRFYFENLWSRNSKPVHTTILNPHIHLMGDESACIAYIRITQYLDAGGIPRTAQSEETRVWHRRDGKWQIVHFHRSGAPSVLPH

% of inhibition [1]: 10%
Structure (SMILES): CN1Cc2nccc(-c3cn(C)nc3-c3ccc(F)cc3)c2C1=O

Structure (SMILES): CNC(=O)Nc1ccc(-c2nc(N3CC4CCC(C3)O4)c3cnn(C4CCC5(CC4)OCCO5)c3n2)cc1
% of control [2]: 86%

% of inhibition [3]: -13%
Structure (SMILES): Cc1ccc(-c2ccc3c(ccc4sc5c(c43)NC[C@@H](C)NC5=O)n2)cn1

% of inhibition [4]: 12.6%
Structure (SMILES): CC[C@@H]1[C@H](F)C(=O)N[C@@H]1COc1nccc2cc(C(N)=O)c(OC)cc12 [ZIMLOVISERTIB]

% of control ([5]; at 1 µM): 96% | % of control ([5]; at 5 µM): 92%
Structure (SMILES): C=CC(=O)Nc1cccc(C(=O)Nc2ccc(Nc3cc(-c4[nH]c(SC)nc4C)ccn3)cc2)c1

Structure (SMILES): CN(C)CCOc1ccc(-c2nc(-c3ccncc3)c(-c3ccc4c(c3)CC/C4=N\O)[nH]2)cc1
% of control [6]: 89%

Structure (SMILES): Cc1cc([C@@H](C)Nc2ccccc2C(=O)O)c2nc(N3CCOCC3)cc(=O)n2c1 [AZD-6482]
% of control [7]: 74%

Structure (SMILES): O[C@H]1CC[C@H](Nc2ncc3nc(Nc4c(F)cc(F)cc4F)n([C@H]4CCOC4)c3n2)CC1
% of control [8]: 3.4%

Structure (SMILES): N#Cc1cccc(-c2c[nH]c3ncnc(N4CCOCC4)c23)c1
% of control [9]: 87% | % of control [10]: 75%
